Tested on: LG0567-F671-PDC complex spheroids viability
Assay: Anticancer human tumor LG0567-F671-PDC patient-derived lung adenocarcinoma cell line growth inhibition [RAS]
Conditions: for IC50: curve of first compound; for viability, T/C: stronger effect = lower value
From the text: RAS pathway inhibitors in Combinations in Complex Spheroids
A high-throughput screen of multi-cell type tumor spheroids was designed to identify active combinations of RAS pathway inhibitors and targeted small molecules. Complex spheroids include a stromal component modeled by human endothelial cells (HUVEC) and fibroblasts modeled by human mesenchymal stem cells (MSCs). The concentration ranges selected for each drug and investigational agent were based upon clinically achievable concentrations if the clinical Cmax of the agent was known.
Compounds. The drugs and investigational agents: abemaciclib (NSC768073), cobimetinib (NSC768068), divarasib (GDC6063, NSC841802), docetaxel (NSC628503), GDC-1971 (RLY-1971, NSC841576), gemcitabine (NSC613327), inavolisib (NSC800729), ipatasertib (NSC767898), KB-0742 (NSC834161), MRTX-1133 (NSC836407), osimertinib (NSC779217), RMC-4630 (NSC839698), RMC-6236 (NSC851965), RMC-6291 (NSC852671), Ro-3306 (NSC812927), sapanisertib (NSC764658), SN-38 (NSC673596), staurosporine (NSC755774), SY5609 (NSC837396), and tovorafenib (DAY101, NSC766906), were obtained from the National Cancer Institute (NCI) Developmental Therapeutics Program Chemical Repository. The FDA-approved anticancer drug set is available from the NCI Developmental Therapeutics Program. […] The stock solutions were prepared in dimethyl sulfoxide (DMSO, Sigma-Aldrich, St. Louis, MO, cat. D2650) at 800-fold the tested concentration and stored at -70 degrees C prior to their use. All drugs and investigational agents were tested over a range starting from a high concentration at or near the clinical Cmax and decreasing in half-log increments. If the clinical Cmax for an agent had not been determined, the highest concentration tested was 10 microM.
Cell Culture. All cells were maintained in an incubator at 37 degrees C and 5% CO2 with 95% humidity. The PDC lines were cultured according to standard operating procedures established by the NCI PDMR. All PDCs were thawed and cultured in Matrigel-coated flasks prepared with a working solution of 1X Ham's F-12 nutrient mix, without supplementation (Invitrogen, Waltham, MA, cat. 11765054), 100 U/mL penicillin-streptomycin (Invitrogen, cat. 15140122), and 2.5% Matrigel (Corning Inc., Corning, NY, cat. 354248) for the first three passages. The 362531-283-R-J2-PDC and 782815-120-R-J1-PDC lines were cultured in 6C/Colon 1B media, which includes advanced DMEM/F-12 (Thermo Fisher Scientific, cat. 12634028), 10 mM HEPES (Thermo Fisher Scientific, cat. 15630080), 1X GlutaMAX supplement (Thermo Fisher Scientific, cat. 35050061), 0.1 mg/mL primocin (InvivoGen, San Diego, CA, cat. ant-pm-2), 10% defined fetal bovine serum, heat inactivated (HyClone Laboratories Inc., Logan, UT, cat. SH30070.03HI), 50% L-WRN conditioned media (ATCC, cat. CRL-3276), 1.25 mM N-Acetyl-L-cysteine (Sigma-Aldrich, cat. A9165), 10 mM nicotinamide (Sigma-Aldrich, cat. N0636), 1X B-27 supplement (Thermo Fisher Scientific, cat. 17504044), 1X N-2 supplement (Thermo Fisher Scientific, cat. 17502048), 50 ng/mL human EGF (Thermo Fisher Scientific, cat. PHG0311), and 10 microM Y-27632 dihydrochloride (Tocris Bioscience, cat. 1254). The K12877-001-R-J1-PDC line was cultured in 6I media, which includes all 6C/Colon 1B media plus 10 ng/mL human FGF-10 (PeproTech, cat. 100-26), 1 ng/mL human FGF-2 (PeproTech, cat. 100-18B), 1 µM prostaglandin E2 (Tocris Bioscience, cat. 2296), […] hydrocortisone (Sigma-Aldrich, cat. H4001), and […] bovine insulin (Sigma-Aldrich, cat. I6634). The K86415-001-R-J1-PDC line was cultured in 6D media, which includes all 6C/Colon 1B media components minus the L-WRN conditioned media. The 485176-168-R4-J1-PDC was cultured in PANC media, which includes all 6C/Colon 1B media plus 100 ng/mL human FGF-10 (PeproTech, cat. 100-26), 500 nM SB-431542 (Selleckchem, cat. S1067), and 10 nM gastrin (Tocris Bioscience, cat. 3006). […]
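Note: spheroids exposed to compound for seven days before readout.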
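Throughout, for IC50: luminescence signal used as a proxy for viable cells.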

## NC1c2ccccc2OC12CCN(c1cnc3c(N4CCCc5ncccc54)n[nH]c3n1)CC2 (centres undefined) + C=CC(=O)N1CCN(c2nc(OCC3CCCN3C)nc3c(F)c(-c4nc(N)cc(C)c4C(F)(F)F)c(Cl)cc23)C(C)C1
Second compound 0.00316 µM
  IC50: < 31.6 nM
Second compound 0.01 µM
  IC50: < 31.6 nM
Second compound 0.0316 µM
  IC50: < 31.6 nM
Second compound 0.1 µM
  IC50: < 31.6 nM
Second compound 0.316 µM
  IC50: < 31.6 nM
Second compound 1 µM
  IC50: < 31.6 nM
Second compound 0.00316 µM, first compound 0.0316 µM
  viability, T/C: 6.27%
Second compound 0.00316 µM, first compound 0.1 µM
  viability, T/C: 4.36%
Second compound 0.00316 µM, first compound 0.316 µM
  viability, T/C: 3.09%
Second compound 0.00316 µM, first compound 1 µM
  viability, T/C: 2.99%
Second compound 0.00316 µM, first compound 3.16 µM
  viability, T/C: 2.79%
Second compound 0.00316 µM, first compound 10 µM
  viability, T/C: 3.28%
Second compound 0.01 µM, first compound 0.0316 µM
  viability, T/C: 5.37%
Second compound 0.01 µM, first compound 0.1 µM
  viability, T/C: 3.73%
Second compound 0.01 µM, first compound 0.316 µM
  viability, T/C: 2.99%
Second compound 0.01 µM, first compound 1 µM
  viability, T/C: 2.89%
Second compound 0.01 µM, first compound 3.16 µM
  viability, T/C: 2.44%
Second compound 0.01 µM, first compound 10 µM
  viability, T/C: 2.64%
Second compound 0.0316 µM, first compound 0.0316 µM
  viability, T/C: 4.86%
Second compound 0.0316 µM, first compound 0.1 µM
  viability, T/C: 3.54%
Second compound 0.0316 µM, first compound 0.316 µM
  viability, T/C: 3.04%
Second compound 0.0316 µM, first compound 1 µM
  viability, T/C: 3.15%
Second compound 0.0316 µM, first compound 3.16 µM
  viability, T/C: 2.61%
Second compound 0.0316 µM, first compound 10 µM
  viability, T/C: 3.04%
Second compound 0.1 µM, first compound 0.0316 µM
  viability, T/C: 5.91%
Second compound 0.1 µM, first compound 0.1 µM
  viability, T/C: 4.17%
Second compound 0.1 µM, first compound 0.316 µM
  viability, T/C: 2.81%
Second compound 0.1 µM, first compound 1 µM
  viability, T/C: 2.78%
Second compound 0.1 µM, first compound 3.16 µM
  viability, T/C: 3%
Second compound 0.1 µM, first compound 10 µM
  viability, T/C: 2.64%
Second compound 0.316 µM, first compound 0.0316 µM
  viability, T/C: 5.55%
Second compound 0.316 µM, first compound 0.1 µM
  viability, T/C: 3.15%
Second compound 0.316 µM, first compound 0.316 µM
  viability, T/C: 3.61%
Second compound 0.316 µM, first compound 1 µM
  viability, T/C: 3.03%
Second compound 0.316 µM, first compound 3.16 µM
  viability, T/C: 2.75%
Second compound 0.316 µM, first compound 10 µM
  viability, T/C: 2.78%
Second compound 1 µM, first compound 0.0316 µM
  viability, T/C: 5.5%
Second compound 1 µM, first compound 0.1 µM
  viability, T/C: 4.65%
Second compound 1 µM, first compound 0.316 µM
  viability, T/C: 3.58%
Second compound 1 µM, first compound 1 µM
  viability, T/C: 3.3%
Second compound 1 µM, first compound 3.16 µM
  viability, T/C: 3.79%
Second compound 1 µM, first compound 10 µM
  viability, T/C: 3.5%

## C=CC(=O)N1CCN(c2nc(OCC3CCCN3C)nc3c(F)c(-c4nc(N)cc(C)c4C(F)(F)F)c(Cl)cc23)C(C)C1 (centres undefined) + CCn1c(-c2cccnc2C(C)OC)c2c3cc(ccc31)N1CCOC(CC(NC(=O)C(C(C)C)N(C)C(=O)C3(F)CCN(C(=O)C#CC(C)(C)N(C)C)CC3)C(=O)N3CCCC(N3)C(=O)OCC(C)(C)C2)C1
Second compound 0.000949 µM
  IC50: < 3.16 nM
Second compound 0.003 µM
  IC50: < 3.16 nM
Second compound 0.00949 µM
  IC50: < 3.16 nM
Second compound 0.03 µM
  IC50: < 3.16 nM
Second compound 0.0949 µM
  IC50: < 3.16 nM
Second compound 0.3 µM
  IC50: < 3.16 nM
Second compound 0.000949 µM, first compound 0.00316 µM
  viability, T/C: 13.9%
Second compound 0.000949 µM, first compound 0.01 µM
  viability, T/C: 13.6%
Second compound 0.000949 µM, first compound 0.0316 µM
  viability, T/C: 13.3%
Second compound 0.000949 µM, first compound 0.1 µM
  viability, T/C: 14.4%
Second compound 0.000949 µM, first compound 0.316 µM
  viability, T/C: 15.2%
Second compound 0.000949 µM, first compound 1 µM
  viability, T/C: 15.5%
Second compound 0.003 µM, first compound 0.00316 µM
  viability, T/C: 12.5%
Second compound 0.003 µM, first compound 0.01 µM
  viability, T/C: 14.6%
Second compound 0.003 µM, first compound 0.0316 µM
  viability, T/C: 13.8%
Second compound 0.003 µM, first compound 0.1 µM
  viability, T/C: 13.8%
Second compound 0.003 µM, first compound 0.316 µM
  viability, T/C: 19.5%
Second compound 0.003 µM, first compound 1 µM
  viability, T/C: 15.4%
Second compound 0.00949 µM, first compound 0.00316 µM
  viability, T/C: 15.2%
Second compound 0.00949 µM, first compound 0.01 µM
  viability, T/C: 14.1%
Second compound 0.00949 µM, first compound 0.0316 µM
  viability, T/C: 12.8%
Second compound 0.00949 µM, first compound 0.1 µM
  viability, T/C: 14.5%
Second compound 0.00949 µM, first compound 0.316 µM
  viability, T/C: 14.1%
Second compound 0.00949 µM, first compound 1 µM
  viability, T/C: 14.4%
Second compound 0.03 µM, first compound 0.00316 µM
  viability, T/C: 13.6%
Second compound 0.03 µM, first compound 0.01 µM
  viability, T/C: 13.9%
Second compound 0.03 µM, first compound 0.0316 µM
  viability, T/C: 14.8%
Second compound 0.03 µM, first compound 0.1 µM
  viability, T/C: 13.3%
Second compound 0.03 µM, first compound 0.316 µM
  viability, T/C: 13.4%
Second compound 0.03 µM, first compound 1 µM
  viability, T/C: 15.1%
Second compound 0.0949 µM, first compound 0.00316 µM
  viability, T/C: 12.6%
Second compound 0.0949 µM, first compound 0.01 µM
  viability, T/C: 12.8%
Second compound 0.0949 µM, first compound 0.0316 µM
  viability, T/C: 11.9%
Second compound 0.0949 µM, first compound 0.1 µM
  viability, T/C: 12.3%
Second compound 0.0949 µM, first compound 0.316 µM
  viability, T/C: 12.9%
Second compound 0.0949 µM, first compound 1 µM
  viability, T/C: 12.4%
Second compound 0.3 µM, first compound 0.00316 µM
  viability, T/C: 9.04%
Second compound 0.3 µM, first compound 0.01 µM
  viability, T/C: 8.65%
Second compound 0.3 µM, first compound 0.0316 µM
  viability, T/C: 10.4%
Second compound 0.3 µM, first compound 0.1 µM
  viability, T/C: 13.6%
Second compound 0.3 µM, first compound 0.316 µM
  viability, T/C: 12.6%
Second compound 0.3 µM, first compound 1 µM
  viability, T/C: 11.6%
